Measurements reported in publication PMC9227096, “Design, Synthesis, and In Vitro, In Silico and In Cellulo Evaluation of New Pyrimidine and Pyridine Amide and Carbamate Derivatives as Multi-Functional Cholinesterase Inhibitors” (Pharmaceuticals, 2022).
Like-named read-outs stand apart in the source and are kept apart here.

Key:
MTT cell viability assay = assay type: cell-based; settings: human, U-87 MG glioblastoma astrocytoma cells, U-87 MG cells; for viability at 24 h, 10 µM: 10 µM (12 and 18: up to 10 µM)
Description: Compounds 12, 14 and 18 were tested to evaluate the cytotoxic effects on U-87 MG Cell Line from human brain (glioblastoma astrocytoma) at concentration ranging from 1 to 50 µM.
The compounds 12, 14 and 18 were evaluated for cell viability effects using the MTT assay. Briefly, U-87 MG Cell Line from human brain (glioblastoma astrocytoma) (ATCC, Manassas, VA, USA) were seeded into 96-well microtiter plates (NunclonTM, Nunc, Germany) at a density of 1.5 × 10^4 cells/well. […]. After an incubation time of 24 h, the medium was replaced by a new, fresh medium containing 0.5 mg/mL MTT (Sigma, Deisenhofen, Germany). After 2 h at 37 °C in 5%, CO2 unreacted dye was removed and the cells were dissolved by DMSO (Merck, Darmstadt, Germany). Absorbance was read at 570 nm by a microtiter spectrophotometer plate reader. The data were expressed as absorbance relative to untreated cells in the same experiment and standardized to 100%. All data points were performed in triplicate and at least three independent experiments.

equine BChE (eqBChE) = molecular target: T1, equine BChE (eqBChE) (Equus caballus, UniProt P81908); test: Ellman's spectrophotometric method, percent inhibition of eqBChE (zero time and after 1 h incubation); assay type: biochemical; settings: read-out: % Inhibition vs. eqBChE ± SD; for inhibition at 9 µM: [I] 9 µM
T1 construct: purchased Sigma-Aldrich (Milan, Italy)
T1 sequence (P81908 whole entry): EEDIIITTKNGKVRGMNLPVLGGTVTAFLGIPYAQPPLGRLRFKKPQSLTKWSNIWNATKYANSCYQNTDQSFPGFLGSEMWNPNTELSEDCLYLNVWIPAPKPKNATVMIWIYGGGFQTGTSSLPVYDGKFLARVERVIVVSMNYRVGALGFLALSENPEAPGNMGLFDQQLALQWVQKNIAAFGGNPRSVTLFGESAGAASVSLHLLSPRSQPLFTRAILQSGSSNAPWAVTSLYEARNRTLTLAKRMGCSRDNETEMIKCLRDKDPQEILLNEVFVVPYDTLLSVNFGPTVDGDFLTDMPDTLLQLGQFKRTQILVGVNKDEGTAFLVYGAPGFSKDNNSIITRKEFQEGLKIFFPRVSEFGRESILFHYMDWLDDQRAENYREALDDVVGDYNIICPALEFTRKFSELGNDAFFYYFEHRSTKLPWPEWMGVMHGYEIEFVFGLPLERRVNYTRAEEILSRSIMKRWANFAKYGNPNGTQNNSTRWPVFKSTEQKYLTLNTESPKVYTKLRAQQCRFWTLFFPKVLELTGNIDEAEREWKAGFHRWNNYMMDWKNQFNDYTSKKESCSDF
Description: Regarding the synthesized compounds enzymatic inhibition studies were carried out on Electrophorus electricus AChE (EeAChE) and equine BChE (eqBChE), according to Ellman’s spectrophotometric method.
All other chemical and biological reagents and solvents used were of the highest analytical, commercially available grade. The water, utilized for the preparation of the phosphate buffer and of the solutions of compounds, was distilled and filtered on nylon membrane filters with 0.2 μm pore size with the Millipore® Filtration apparatus before each use. Micropipettes Labmate (BRAND Dig. 10–100 μL; Dig. 100–1000 μL; Dig. 0.1–2 μL) and Transferpette (HIGH TECH LAB LM200: 20–200 μL; LM5000: 1000–5000 μL) were used to collect the samples. The assays were carried out by double beam UV–Vis Lambda 40 Perkin Elmer spectrophotometer, using optical polystyrene cuvettes (10 × 10 × 45 mm, 340–800 nm optical transparency), each measure was repeated at least in triplicate. […] Vivaspin® 2 Sartorius, with a membrane of 3000 MWCO (molecular weight cutoff) consisting of polyethersulfone (PES), cellulose triacetate (CTA) and hydrosart, was used for the ultrafiltration procedures. An ALC PK110 bench-top centrifuge was used for centrifugation. The spectrophotometric method of Ellman, with minor modifications, was used to evaluate the inhibition of cholinesterase enzymes. […] EeAChE and eqBChE were periodically tested to evaluate the effective enzymatic activity.
An amount of 3.0 mL of a solution in 0.1 M phosphate buffer (pH = 7.4) containing DTNB (0.25 mM) and EeAChE (0.083 UmL^−1) or eqBChE (0.083 UmL^−1) were placed in a polystyrene cuvette of 1.0 cm path length; 1 µL of a solution in DMSO of the tested compound was added to obtain in cuvette concentration range 9 µM–0.09 µM. With this solution the blank was made.
Each experiment was repeated at least in triplicate.
The cuvettes were prepared consecutively at intervals of 3 min to allow equal incubation times.

[1] = Chelation studies: UV-Vis titration and Job's plot; assay type: physicochemical; settings: for chelating ability on the biometals Fe^3+, Cu^2+ and Zn^2+: UV-Vis spectra in MeOH, ligand/metal ratio 1:3, 1:5 or 1:10
Description: Initially, the UV–Vis spectrum of the ligand was recorded and compared with the spectra obtained by adding an excess of metal to the ligand solution, maintaining the same concentration of the ligand (ligand/metal ratio 1:3, 1:5 or 1:10). The variation of the UV–Vis spectrum of the ligand in presence of metal ions is indicative of the formation of the complex. […] As previously supposed, the chelating activity of these compounds is due to the presence of two adjacent nitrogen atoms in the 2-amino-pyridine moiety.
UV–Vis titrations of these compounds were carried out with the metal ions with which they form complexes, recording first the UV–Vis spectrum of the ligand and then the spectra obtained by mixing solutions of ligand and metal according to increasing metal/ligand molar ratios (Figure 7a).
The stoichiometries of metal–ligand complexes were determined through Job’s method.
The mole fraction X, which causes the maximum variation of absorbance, is extracted from the graph and then the value of the coefficient n, which corresponds to the number of ligand molecules per cation, is obtained (Figure 7b). The UV–Vis titrations spectra and the Job’s plots of all tested compound are reported in the Supplementary Materials (Figures S8–S17), while the data extrapolated from Job’s plots are summarized in Table 5.
For the UV–Vis titration, solutions 10^−3 M in MeOH of compounds 12, 14 and 18 were prepared. […]. UV–Vis spectra were recorded from 210 to 450 nm.
For the first measure, 150 µL of ligand solution were diluted in 2.85 mL of MeOH into sample cuvette, while only MeOH was placed in reference cuvette and the UV–Vis spectrum was recorded. For subsequent measurements, 2.85 mL of the opportune metal solution were placed both in a sample cuvette and in a reference cuvette; then 150 µL of ligand solution were added to a sample cuvette, while 150 µL of MeOH were added to the reference cuvette and the UV–Vis spectra were recorded. The spectra thus obtained were superimposed to observe the variations present between the ligand alone and in presence of increasing amount of metal.
To determine the stoichiometric coefficients of the complexes, Job’s method was used, which requires the mixing, in appropriate proportions, of the equimolar solution of metal ion and ligand, so that the final volume and the total moles present in the cuvette are equal for each measurement. The absorbance values were recorded at the wavelengths, extrapolated from the UV–Vis titration spectra, where the maximum variation of absorbance was observed. At the same time two solutions in MeOH of equal concentration were prepared, one of ligand and one of metal ion, diluting the solutions 1 M of CuSO4·5H2O and Zn(NO3)2·6H2O and 0.1 M of FeCl3·6H2O previously prepared. The concentrations of the solutions used and the wavelengths in which the absorbance was recorded were: 2.96·10^−4 M for 12 and Fe^3+–251, 320 nm; 2.83·10^−4 M for 14 and Fe^3+–250, 310 nm; 2.90·10^−4 M for 18 and Fe^3+–245, 310 nm; 6.00·10^−4 M for 18 and Cu^2+–330 nm.
For each determination 9–20 measurements were made, introducing the appropriate volumes of metal and ligand solutions in the sample cuvette to obtain mole fractions of the ligand in the range 0.1–0.9, while appropriate volumes of ligand solution and MeOH were placed in the reference cuvette, to obtain the same concentration of ligand in the sample cuvette. The absorbance values of the metal ion, calculated by the Lambert–Beer relation, known the extinction coefficients ε of the metal ion at used wavelengths and the nominal concentrations of the metal ion for each measure, were algebraically subtracted from the recorded absorbance values, in order to obtain the exclusive absorbance variations due to the complex formation. […]

[2] = [I] 900 nM, 0.0833 U/mL enzyme, 100 µM acetylthiocholine
[3] = 0.0833 U/mL enzyme, 100 µM acetylthiocholine

Row | SMILES | viability at 24 h, 10 µM (MTT cell viability assay) [%] | viability at 24 h, 50 µM (MTT cell viability assay) [%] | inhibition at 0.9 µM (equine BChE (eqBChE); [2]) [%] | inhibition at 9 µM (equine BChE (eqBChE); [3]) [%] | X (mole fraction that causes the maximum variation of absorbance), Fe^3+ ([1]; Job's plot) | n (number of ligand molecules per cation), Fe^3+ ([1]; Job's plot) | chelating ability on the biometals Fe^3+, Cu^2+ and Zn^2+ [1] | inhibition at 0.9 µM (equine BChE (eqBChE); 1 h, [I] = 900 nM, t = 1 h incubation at 25 °C) [%] | X (mole fraction that causes the maximum variation of absorbance), Cu^2+ ([1]; Job's plot, Cu^2+) | n (number of ligand molecules per cation), Cu^2+ ([1]; Job's plot, Cu^2+)
1 | O=C(Cc1ccc(Oc2ccccc2)cc1)NCCCCCCNc1ccccn1 [Compound 14, 2-(4-phenoxyphenyl)-N-(6-(pyridin-2-ylamino)hexyl)acetamide] | > 65 | > 30 | 45 | 88 | 0.70 | 2 | ability to chelate Fe^3+ and Cu^2+ ions | – | – | –
2 | O=C(NCCCCCCNc1ccccn1)Oc1ccccc1 [Compound 18, Phenyl (6-(pyridin-2-ylamino)hexyl)carbamate] | > 90 | > 35 | – | – | 0.69 | 2 | ability to chelate Fe^3+ and Cu^2+ ions | 79.6 ± 5.3 | 0.49 | 1
3 | O=C(NCCCCCCNc1ccccn1)c1ccccc1 [Compound 12, N-(6-(pyridin-2-ylamino)hexyl)benzamide] | > 90 | > 35 | 22 | 81 | 0.69 | 2 | ability to chelate Fe^3+ and Cu^2+ ions | – | – | –
